Measured values from publication PMC7531004, “Discovery of gramicidin A analogues with altered activities by multidimensional screening of a one-bead-one-compound library” (Nature Communications, 2020).
Where a SMILES comes first, the peptide text is derived from it. [ ]: non-standard residue; d: D form. The star is where a group is joined. NHCH2CH2OH = OCCN*; For = O=C*

What was measured:
[1] = H+/Na+ transport assay of bead-derived peptides (one-point); type: biochemical; set-up: key: relative activity; mean of two control wells = 1.00; conditions: bead-derived peptide solution, EYPC/EYPG LUVs;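 further: relative to parent gramicidin A activity set to 1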
Procedure, shortened: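 H+/Na+ transport is monitored through pyranine fluorescence in freshly extruded LUVs after a 30-min room-temperature vortex with each library peptide at a single concentration. Signals are normalized to detergent (Triton X-100) and untreated controls.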

[2] = cell viability/%
Procedure, shortened: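 Peptide stocks diluted 250× in growth medium; P388 cells 1 × 10^4 cells/mL final; 37 °C, 5% CO2, 92 h. WST-1 + 1-methoxy PMS, 4 h, A415. Output: % viability.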

[3] = test system: Streptococcus pyogenes SSI-9; assay: Antibacterial activity assay of bead-derived peptides (three concentrations); type: cell-based; set-up: key: +++: inhibition by the 640-fold diluted peptide solution; ++: inhibition by the 160-fold diluted solution; +: inhibition by the 40-fold diluted solution; -: no inhibition; conditions: S. pyogenes, bead-derived peptide solution, three concentrations
Procedure, shortened: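 First, each peptide stock was diluted 4- and 16-fold in DMSO; next, the three solutions were mixed with S. pyogenes SSI-9 suspension (2 × 10^5 CFU) in cation-adjusted Mueller Hinton Broth plus 5% laked horse blood; finally, plates stood 18 h at 37 °C before checking for grown-cell precipitation.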

Row | Structure (SMILES) | H+/Na+ transport activity normalized against the value of 1 (1.00) [1] | viability [2] [%] | antibacterial activity [3]
1 | CC(C)C[C@@H](NC(=O)[C@H](C)NC(=O)[C@H](NC(=O)[C@H](C)NC(=O)CNC(=O)[C@@H](NC=O)C(C)C)C(C)C)C(=O)N[C@H](C(=O)N[C@H](CC(C)C)C(=O)N[C@@H](Cc1c[nH]c2ccccc12)C(=O)N[C@H](CC(C)C)C(=O)N[C@@H](Cc1c[nH]c2ccccc12)C(=O)N[C@@H](C(=O)N[C@@H](Cc1c[nH]c2ccccc12)C(=O)N[C@@H](C(=O)N[C@@H](Cc1c[nH]c2ccccc12)C(=O)NCCO)C(C)C)[C@H](C)O)C(C)C [compound 2117] (For-VGA[dV]A[dL]V[dL]W[dL]W[dT]W[dV]W-NHCH2CH2OH) | 1.15 | 100 | +
2 | CC(C)C[C@@H](NC(=O)[C@H](C)NC(=O)[C@H](NC(=O)[C@H](C)NC(=O)CNC(=O)[C@@H](NC=O)C(C)C)C(C)C)C(=O)N[C@H](C(=O)N[C@H](CC(C)C)C(=O)N[C@@H](Cc1c[nH]c2ccccc12)C(=O)N[C@@H](C(=O)N[C@@H](Cc1c[nH]c2ccccc12)C(=O)N[C@@H](C(=O)N[C@@H](Cc1c[nH]c2ccccc12)C(=O)N[C@@H](C(=O)N[C@@H](Cc1c[nH]c2ccccc12)C(=O)NCCO)C(C)C)C(C)C)[C@H](C)O)C(C)C [compound 8554] (For-VGA[dV]A[dL]V[dL]W[dT]W[dV]W[dV]W-NHCH2CH2OH) | 1.03 | 61.3 | -
3 | CC(C)C[C@@H](NC(=O)[C@H](C)NC(=O)[C@H](NC(=O)[C@H](C)NC(=O)CNC(=O)[C@@H](NC=O)C(C)C)C(C)C)C(=O)N[C@H](C(=O)N[C@@H](C(=O)N[C@@H](Cc1c[nH]c2ccccc12)C(=O)N[C@H](CC(C)C)C(=O)N[C@@H](Cc1c[nH]c2ccccc12)C(=O)N[C@@H](C(=O)N[C@@H](Cc1c[nH]c2ccccc12)C(=O)N[C@H](CC(C)C)C(=O)N[C@@H](Cc1c[nH]c2ccccc12)C(=O)NCCO)[C@H](C)O)C(C)C)C(C)C [compound 9177] (For-VGA[dV]A[dL]V[dV]W[dL]W[dT]W[dL]W-NHCH2CH2OH) | 1.05 | 61.7 | -
4 | CNC(=O)C[C@@H](NC(=O)[C@H](Cc1c[nH]c2ccccc12)NC(=O)[C@@H](CC(C)C)NC(=O)[C@H](Cc1c[nH]c2ccccc12)NC(=O)[C@H](NC(=O)[C@H](Cc1c[nH]c2ccccc12)NC(=O)[C@@H](CC(C)C)NC(=O)[C@@H](NC(=O)[C@@H](CC(C)C)NC(=O)[C@H](C)NC(=O)[C@@H](CC(C)C)NC(=O)[C@H](C)NC(=O)CNC(=O)[C@@H](NC=O)C(C)C)C(C)C)C(C)C)C(=O)N[C@@H](Cc1c[nH]c2ccccc12)C(=O)NCCO [compound 3854] (For-VGA[dL]A[dL]V[dL]W[dV]W[dL]W[dD](NHMe)W-NHCH2CH2OH) | 1.18 | 100 | -
5 | CC(C)C[C@@H](NC(=O)[C@H](C)NC(=O)[C@H](NC(=O)[C@H](C)NC(=O)CNC(=O)[C@@H](NC=O)C(C)C)[C@H](C)O)C(=O)N[C@H](C(=O)N[C@H](CC(C)C)C(=O)N[C@@H](Cc1c[nH]c2ccccc12)C(=O)N[C@@H](C(=O)N[C@@H](Cc1c[nH]c2ccccc12)C(=O)N[C@H](CC(C)C)C(=O)N[C@@H](Cc1c[nH]c2ccccc12)C(=O)N[C@@H](C(=O)N[C@@H](Cc1c[nH]c2ccccc12)C(=O)NCCO)C(C)C)C(C)C)C(C)C [compound 102] (For-VGA[dT]A[dL]V[dL]W[dV]W[dL]W[dV]W-NHCH2CH2OH) | 1.09 | 100 | -
6 | CC(C)C[C@@H](NC(=O)[C@H](C)NC(=O)CNC(=O)[C@@H](NC=O)C(C)C)C(=O)N[C@@H](C)C(=O)N[C@H](CC(C)C)C(=O)N[C@H](C(=O)N[C@@H](C(=O)N[C@@H](Cc1c[nH]c2ccccc12)C(=O)N[C@@H](C(=O)N[C@@H](Cc1c[nH]c2ccccc12)C(=O)N[C@@H](C(=O)N[C@@H](Cc1c[nH]c2ccccc12)C(=O)N[C@H](CC(C)C)C(=O)N[C@@H](Cc1c[nH]c2ccccc12)C(=O)NCCO)C(C)C)C(C)C)C(C)C)C(C)C [compound 905] (For-VGA[dL]A[dL]V[dV]W[dV]W[dV]W[dL]W-NHCH2CH2OH) | 1.19 | 90.6 | +
7 | CC(C)C[C@@H](NC(=O)[C@H](C)NC(=O)[C@H](NC(=O)[C@H](C)NC(=O)CNC(=O)[C@@H](NC=O)C(C)C)C(C)C)C(=O)N[C@H](C(=O)N[C@@H](C(=O)N[C@@H](Cc1c[nH]c2ccccc12)C(=O)N[C@@H](C(=O)N[C@@H](Cc1c[nH]c2ccccc12)C(=O)N[C@@H](C(=O)N[C@@H](Cc1c[nH]c2ccccc12)C(=O)N[C@@H](C(=O)N[C@@H](Cc1c[nH]c2ccccc12)C(=O)NCCO)C(C)C)[C@H](C)O)C(C)C)C(C)C)C(C)C [compound 4258] (For-VGA[dV]A[dL]V[dV]W[dV]W[dT]W[dV]W-NHCH2CH2OH) | 1.00 | 85.9 | -
8 | CC(C)C[C@@H](NC(=O)[C@H](C)NC(=O)CNC(=O)[C@@H](NC=O)C(C)C)C(=O)N[C@@H](C)C(=O)N[C@@H](C(=O)N[C@H](C(=O)N[C@@H](C(=O)N[C@@H](Cc1c[nH]c2ccccc12)C(=O)N[C@@H](C(=O)N[C@@H](Cc1c[nH]c2ccccc12)C(=O)N[C@@H](C(=O)N[C@@H](Cc1c[nH]c2ccccc12)C(=O)N[C@H](CC(C)C)C(=O)N[C@@H](Cc1c[nH]c2ccccc12)C(=O)NCCO)C(C)C)C(C)C)C(C)C)C(C)C)[C@H](C)O [compound 2475] (For-VGA[dL]A[dT]V[dV]W[dV]W[dV]W[dL]W-NHCH2CH2OH) | 1.13 | 100 | -
9 | CNC(=O)C[C@@H](NC(=O)[C@H](Cc1c[nH]c2ccccc12)NC(=O)[C@H](NC(=O)[C@H](Cc1c[nH]c2ccccc12)NC(=O)[C@H](NC(=O)[C@H](Cc1c[nH]c2ccccc12)NC(=O)[C@@H](CC(C)C)NC(=O)[C@@H](NC(=O)[C@@H](CC(C)C)NC(=O)[C@H](C)NC(=O)[C@@H](CC(C)C)NC(=O)[C@H](C)NC(=O)CNC(=O)[C@@H](NC=O)C(C)C)C(C)C)C(C)C)C(C)C)C(=O)N[C@@H](Cc1c[nH]c2ccccc12)C(=O)NCCO [compound 6265] (For-VGA[dL]A[dL]V[dL]W[dV]W[dV]W[dD](NHMe)W-NHCH2CH2OH) | 1.03 | 79.9 | -
10 | CC(C)C[C@@H](NC(=O)[C@H](C)NC(=O)CNC(=O)[C@@H](NC=O)C(C)C)C(=O)N[C@@H](C)C(=O)N[C@H](CC(C)C)C(=O)N[C@H](C(=O)N[C@@H](C(=O)N[C@@H](Cc1c[nH]c2ccccc12)C(=O)N[C@H](CC(C)C)C(=O)N[C@@H](Cc1c[nH]c2ccccc12)C(=O)N[C@@H](C(=O)N[C@@H](Cc1c[nH]c2ccccc12)C(=O)N[C@H](CC(C)C)C(=O)N[C@@H](Cc1c[nH]c2ccccc12)C(=O)NCCO)C(C)C)[C@H](C)O)C(C)C [compound 8604] (For-VGA[dL]A[dL]V[dT]W[dL]W[dV]W[dL]W-NHCH2CH2OH) | 1.08 | 54.4 | -
11 | CC(C)C[C@@H](NC(=O)[C@H](C)NC(=O)[C@H](NC(=O)[C@H](C)NC(=O)CNC(=O)[C@@H](NC=O)C(C)C)C(C)C)C(=O)N[C@H](C(=O)N[C@H](CC(C)C)C(=O)N[C@@H](Cc1c[nH]c2ccccc12)C(=O)N[C@H](CC(C)C)C(=O)N[C@@H](Cc1c[nH]c2ccccc12)C(=O)N[C@H](CC(C)C)C(=O)N[C@@H](Cc1c[nH]c2ccccc12)C(=O)N[C@@H](C(=O)N[C@@H](Cc1c[nH]c2ccccc12)C(=O)NCCO)[C@H](C)O)C(C)C [compound 129] (For-VGA[dV]A[dL]V[dL]W[dL]W[dL]W[dT]W-NHCH2CH2OH) | 1.05 | 100 | +
12 | CNC(=O)C[C@@H](NC(=O)[C@H](Cc1c[nH]c2ccccc12)NC(=O)[C@@H](CC(C)C)NC(=O)[C@@H](NC(=O)[C@@H](CC(C)C)NC(=O)[C@H](C)NC(=O)[C@H](NC(=O)[C@H](C)NC(=O)CNC(=O)[C@@H](NC=O)C(C)C)C(C)C)C(C)C)C(=O)N[C@@H](Cc1c[nH]c2ccccc12)C(=O)N[C@@H](C(=O)N[C@@H](Cc1c[nH]c2ccccc12)C(=O)N[C@@H](C(=O)N[C@@H](Cc1c[nH]c2ccccc12)C(=O)NCCO)C(C)C)C(C)C [compound 1152] (For-VGA[dV]A[dL]V[dL]W[dD](NHMe)W[dV]W[dV]W-NHCH2CH2OH) | 1.05 | 100 | -
13 | CNC(=O)C[C@@H](NC(=O)[C@H](Cc1c[nH]c2ccccc12)NC(=O)[C@H](NC(=O)[C@H](Cc1c[nH]c2ccccc12)NC(=O)[C@H](NC(=O)[C@H](Cc1c[nH]c2ccccc12)NC(=O)[C@H](NC(=O)[C@@H](NC(=O)[C@H](NC(=O)[C@H](C)NC(=O)[C@@H](CC(C)C)NC(=O)[C@H](C)NC(=O)CNC(=O)[C@@H](NC=O)C(C)C)C(C)C)C(C)C)C(C)C)C(C)C)C(C)C)C(=O)N[C@@H](Cc1c[nH]c2ccccc12)C(=O)NCCO [compound 362] (For-VGA[dL]A[dV]V[dV]W[dV]W[dV]W[dD](NHMe)W-NHCH2CH2OH) | 1.05 | 100 | -
